The structures appear in SMILES notation.

The target of the assay is A/H3N2 influenza NA (Influenza A virus (H3N2), UniProt Q91IQ5). The class given is biochemical, A/H3N2 influenza virus (clinical isolate from Hong Kong). The following applies: 10 µM.
Turning to `CCC(CC)O[C@@H]1C=C(C(=O)O)C[C@H](NC(=O)c2cnn(Cc3ccccc3)c2)[C@H]1NC(C)=O` [Compound 6a, (3R,4R,5S)-4-acetamido-5-(1-benzyl-1H-pyrazole-4-carboxamido)-3-(pentan-3-yloxy) cyclohex-1-ene-1-carboxylic acid], the “Inhibitory rate against A/H3N2 influenza NA” value (“Inhibitory rate” below) is given as 32.02%.

Consider `CCC(CC)O[C@@H]1C=C(C(=O)O)C[C@H](NC(=O)c2cnn(Cc3ccccc3Cl)c2)[C@H]1NC(C)=O` [Compound 6b, (3R,4R,5S)-4-acetamido-5-(1-(2-chlorobenzyl)-1H-pyrazole-4-carboxamido)-3-(pentan-3-yloxy) cyclohex-1-ene-1-carboxylic acid], for which the “Inhibitory rate” value amounted to 18.88%.

Take `CCC(CC)O[C@@H]1C=C(C(=O)O)C[C@H](NC(=O)c2cnn(Cc3cccc(Cl)c3)c2)[C@H]1NC(C)=O` [Compound 6c, (3R,4R,5S)-4-acetamido-5-(1-(3-chlorobenzyl)-1H-pyrazole-4-carboxamido)-3-(pentan-3-yloxy) cyclohex-1-ene-1-carboxylic acid]: the “Inhibitory rate” value was 23.88%.

On to `CCC(CC)O[C@@H]1C=C(C(=O)O)C[C@H](NC(=O)c2cnn(Cc3cccc([N+](=O)[O-])c3)c2)[C@H]1NC(C)=O` [Compound 6d, (3R,4R,5S)-4-acetamido-5-(1-(3-nitrobenzyl)-1H-pyrazole-4-carboxamido)-3-(pentan-3-yloxy) cyclohex-1-ene-1-carboxylic acid], for which the “Inhibitory rate” value amounted to 12.26%.

Consider `CCC(CC)O[C@@H]1C=C(C(=O)O)C[C@H](NC(=O)c2cnn(Cc3cccc(OC)c3)c2)[C@H]1NC(C)=O` [Compound 6e, (3R,4R,5S)-4-acetamido-5-(1-(3-methoxybenzyl)-1H-pyrazole-4-carboxamido)-3-(pentan-3-yloxy) cyclohex-1-ene-1-carboxylic acid], for which the “Inhibitory rate” value was found to be 23.37%.

Take `CCC(CC)O[C@@H]1C=C(C(=O)O)C[C@H](NC(=O)c2cnn(Cc3ccc(OC)cc3)c2)[C@H]1NC(C)=O` [Compound 6f, (3R,4R,5S)-4-acetamido-5-(1-(4-methoxybenzyl)-1H-pyrazole-4-carboxamido)-3-(pentan-3-yloxy) cyclohex-1-ene-1-carboxylic acid]: the “Inhibitory rate” value stood at 26.79%.

As to `CCC(CC)O[C@@H]1C=C(C(=O)O)C[C@H](NC(=O)c2cnn(Cc3ccc(C(F)(F)F)cc3)c2)[C@H]1NC(C)=O` [Compound 6g, (3R,4R,5S)-4-acetamido-3-(pentan-3-yloxy)-5-(1-(4-(trifluoromethyl)benzyl)-1H-pyrazole-4-carboxamido) cyclohex-1-ene-1-carboxylic acid], the “Inhibitory rate” value came out at 21.72%.

As to `CCC(CC)O[C@@H]1C=C(C(=O)O)C[C@H](NC(=O)c2cnn(-c3ccccc3C)c2)[C@H]1NC(C)=O` [Compound 6h, (3R,4R,5S)-4-acetamido-3-(pentan-3-yloxy)-5-(1-(o-tolyl)-1H-pyrazole-4-carboxamido) cyclohex-1-ene-1-carboxylic acid], the “Inhibitory rate” value stood at 38.37%.

`CCC(CC)O[C@@H]1C=C(C(=O)O)C[C@H](NC(=O)c2cnn(-c3ccc(C)cc3)c2)[C@H]1NC(C)=O` [Compound 6i, (3R,4R,5S)-4-acetamido-3-(pentan-3-yloxy)-5-(1-(p-tolyl)-1H-pyrazole-4-carboxamido) cyclohex-1-ene-1-carboxylic acid]: the “Inhibitory rate” value stood at 52.31%.

In the case of `CCC(CC)O[C@@H]1C=C(C(=O)O)C[C@H](NC(=O)c2cnn(-c3ccc(OC)cc3)c2)[C@H]1NC(C)=O` [Compound 6j, (3R,4R,5S)-4-acetamido-5-(1-(4-methoxyphenyl)-1H-pyrazole-4-carboxamido)-3-(pentan-3-yloxy) cyclohex-1-ene-1-carboxylic acid], the “Inhibitory rate” value amounted to 34.15%.

For `CCC(CC)O[C@@H]1C=C(C(=O)O)C[C@H](NC(=O)c2cnn(-c3ccc(Cl)cc3)c2)[C@H]1NC(C)=O` [Compound 6k, (3R,4R,5S)-4-acetamido-5-(1-(4-chlorophenyl)-1H-pyrazole-4-carboxamido)-3-(pentan-3-yloxy) cyclohex-1-ene-1-carboxylic acid], the “Inhibitory rate” value worked out at 25.67%.

For `CCC(CC)O[C@@H]1C=C(C(=O)O)C[C@H](NC(=O)c2cc(-c3ccccc3)n[nH]2)[C@H]1NC(C)=O` [Compound 12a, (3R,4R,5S)-4-acetamido-3-(pentan-3-yloxy)-5-(3-phenyl-1H-pyrazole-5-carboxamido) cyclohex-1-ene-1-carboxylic acid], the “Inhibitory rate” value stood at 42.81%.

Take `CCC(CC)O[C@@H]1C=C(C(=O)O)C[C@H](NC(=O)c2cc(-c3ccc(Cl)cc3)n[nH]2)[C@H]1NC(C)=O` [Compound 12b, (3R,4R,5S)-4-acetamido-5-(3-(4-chlorophenyl)-1H-pyrazole-5-carboxamido)-3-(pentan-3-yloxy) cyclohex-1-ene-1-carboxylic acid]: the “Inhibitory rate” value is on record as 50.43%.

`CCC(CC)O[C@@H]1C=C(C(=O)O)C[C@H](NC(=O)c2cc(-c3ccc(F)cc3)n[nH]2)[C@H]1NC(C)=O` [Compound 12c, (3R,4R,5S)-4-acetamido-5-(3-(4-fluorophenyl)-1H-pyrazole-5-carboxamido)-3-(pentan-3-yloxy) cyclohex-1-ene-1-carboxylic acid]: the “Inhibitory rate” value is recorded as 56.45%.

Take `CCC(CC)O[C@@H]1C=C(C(=O)O)C[C@H](NC(=O)c2cc(-c3ccc(C(F)(F)F)cc3)n[nH]2)[C@H]1NC(C)=O` [Compound 12d, (3R,4R,5S)-4-acetamido-3-(pentan-3-yloxy)-5-(3-(4-(trifluoromethyl)phenyl)-1H-pyrazole-5-carboxamido) cyclohex-1-ene-1-carboxylic acid]: the “Inhibitory rate” value is 46.7%.

With `CCC(CC)O[C@@H]1C=C(C(=O)O)C[C@H](NC(=O)c2cc(-c3ccc(OC)cc3)n[nH]2)[C@H]1NC(C)=O` [Compound 12e, (3R,4R,5S)-4-acetamido-5-(3-(4-methoxyphenyl)-1H-pyrazole-5-carboxamido)-3-(pentan-3-yloxy) cyclohex-1-ene-1-carboxylic acid], the “Inhibitory rate” value was 42.02%.

In the case of `CCC(CC)O[C@@H]1C=C(C(=O)O)C[C@H](NC(=O)c2cc(-c3cccs3)n[nH]2)[C@H]1NC(C)=O` [Compound 12f, (3R,4R,5S)-4-acetamido-3-(pentan-3-yloxy)-5-(3-(thiophen-2-yl)-1H-pyrazole-5-carboxamido) cyclohex-1-ene-1-carboxylic acid], the “Inhibitory rate” value was determined as 40.02%.

Turning to `CCC(CC)O[C@@H]1C=C(C(=O)O)C[C@H](NC(=O)c2cc(-c3ccc(Cl)cc3)nn2CC2CC2)[C@H]1NC(C)=O` [Compound 16a, (3R,4R,5S)-4-acetamido-5-(3-(4-chlorophenyl)-1-(cyclopropylmethyl)-1H-pyrazole-5-carboxamido)-3-(pentan-3-yloxy) cyclohex-1-ene-1-carboxylic acid], the “Inhibitory rate” value is 31.50%.

As for `CCC(CC)O[C@@H]1C=C(C(=O)O)C[C@H](NC(=O)c2cc(-c3ccc(Cl)cc3)nn2CC2CCC2)[C@H]1NC(C)=O` [Compound 16b, (3R,4R,5S)-4-acetamido-5-(3-(4-chlorophenyl)-1-(cyclobutylmethyl)-1H-pyrazole-5-carboxamido)-3-(pentan-3-yloxy) cyclohex-1-ene-1-carboxylic acid], the “Inhibitory rate” value worked out at 39.81%.

On to `CCC(CC)O[C@@H]1C=C(C(=O)O)C[C@H](NC(=O)c2cc(-c3ccc(Cl)cc3)nn2CC2CCCCC2)[C@H]1NC(C)=O` [Compound 16c, (3R,4R,5S)-4-acetamido-5-(3-(4-chlorophenyl)-1-(cyclohexylmethyl)-1H-pyrazole-5-carboxamido)-3-(pentan-3-yloxy) cyclohex-1-ene-1-carboxylic acid], for which the “Inhibitory rate” value came out at 48.50%.

For `CCC(CC)O[C@@H]1C=C(C(=O)O)C[C@H](NC(=O)c2cc(C3CC3)n(-c3ccccc3)n2)[C@H]1NC(C)=O` [Compound 24a, (3R,4R,5S)-4-acetamido-5-(5-cyclopropyl-1-phenyl-1H-pyrazole-3-carboxamido)-3-(pentan-3-yloxy) cyclohex-1-ene-1-carboxylic acid], the “Inhibitory rate” value was determined as 30.57%.

On to `CCC(CC)O[C@@H]1C=C(C(=O)O)C[C@H](NC(=O)c2cc(C3CC3)n(-c3ccccc3C)n2)[C@H]1NC(C)=O` [Compound 24b, (3R,4R,5S)-4-acetamido-5-(5-cyclopropyl-1-(o-tolyl)-1H-pyrazole-3-carboxamido)-3-(pentan-3-yloxy) cyclohex-1-ene-1-carboxylic acid], for which the “Inhibitory rate” value is listed as 60.91%.

For the molecule `CCC(CC)O[C@@H]1C=C(C(=O)O)C[C@H](NC(=O)c2cc(C3CC3)n(-c3cccc(C)c3)n2)[C@H]1NC(C)=O` [Compound 24c, (3R,4R,5S)-4-acetamido-5-(5-cyclopropyl-1-(m-tolyl)-1H-pyrazole-3-carboxamido)-3-(pentan-3-yloxy) cyclohex-1-ene-1-carboxylic acid], the “Inhibitory rate” value is on record as 34.75%.

Take `CCC(CC)O[C@@H]1C=C(C(=O)O)C[C@H](NC(=O)c2cc(C3CC3)n(-c3ccc(Br)cc3)n2)[C@H]1NC(C)=O` [Compound 24d, (3R,4R,5S)-4-acetamido-5-(1-(4-bromophenyl)-5-cyclopropyl-1H-pyrazole-3-carboxamido)-3-(pentan-3-yloxy) cyclohex-1-ene-1-carboxylic acid]: the “Inhibitory rate” value is reported as 42.68%.

With `CCC(CC)O[C@@H]1C=C(C(=O)O)C[C@H](NC(=O)c2cc(C3CC3)n(-c3ccc(C(F)(F)F)cc3)n2)[C@H]1NC(C)=O` [Compound 24e, (3R,4R,5S)-4-acetamido-5-(5-cyclopropyl-1-(4-(trifluoromethyl)phenyl)-1H-pyrazole-3-carboxamido)-3-(pentan-3-yloxy) cyclohex-1-ene-1-carboxylic acid], the “Inhibitory rate” value worked out at 44.47%.

As for `CCC(CC)O[C@@H]1C=C(C(=O)O)C[C@H](NC(=O)c2cc(C3CC3)nn2-c2ccccc2)[C@H]1NC(C)=O` [Compound 26a, (3R,4R,5S)-4-acetamido-5-(3-cyclopropyl-1-phenyl-1H-pyrazole-5-carboxamido)-3-(pentan-3-yloxy) cyclohex-1-ene-1-carboxylic acid], the “Inhibitory rate” value is on record as 30.41%.

These data come from article PMC8073777, “Design, Synthesis, Biological Evaluation and In Silico Studies of Pyrazole-Based NH2-Acyl Oseltamivir Analogues as Potent Neuraminidase Inhibitors” (Pharmaceuticals, 2021).
